Results on one compound are retold here after patent US20260058014A1, “CHARACTERIZATION OF TUMOR HET[…] A […]” (Foundation Medicine, Inc., priority 2022, published 2026).

Structures are written as SMILES.

For this assay, the system named is EGFR driver alteration-positive NSCLC patients. Put plainly: Progression free survival from start of 1st line Osimertinib in a real-world clinico-genomic NSCLC cohort stratified by tumor heterogeneity score. Format: in vivo, human. The text has this:
Starting with a patient cohort of 15,035 patients, the data was filtered (for biopsy type and bait set). The data was then filtered to exclude data for patients for whom a computational tumor purity was less than or equal to 20% or for whom a computational tumor purity value was missing. The remaining patient data was divided according to whether the samples were early-stage specimens, late-stage specimens, or of ambiguous origin. For the late-stage specimens, data for patients who were first diagnosed prior to Jan. […] Finally, data was selected for N=135 1st line Osimertinib-treated, EGFR driver alteration-positive NSCLC patients for whom tumor samples were sequenced at most a year prior to start of therapy.
The group of 135 patients were then divided into three tertiles with 45 patients each. […] For patients without a subsequent line of therapy, the event date was the earliest progression event that occurred more than 14 days after the index date, or the date of death. • Censor date: patients with a subsequent line of therapy were censored at their last clinic note date if it occurred between the index date and the start date of the subsequent line of therapy plus 14 days. […]

With `C=CC(=O)Nc1cc(Nc2nccc(-c3cn(C)c4ccccc34)n2)c(OC)cc1N(C)CCN(C)C` [Osimertinib], the mPFS reads like this: (Score category High, EGFR CCF category Low, N=12) 6.54; (Score category Low, EGFR CCF category High, N=39) 16.01.
